Measurements: the supplement of paper PMC13207355
Several values for one entry are separate records, joined by “and”; a condition that tells them apart may be missing. Equal entries are not always repeated.

Assays:
Conditions in all cases: exposure time: 72 h
E13 [1] = patient-derived glioblastoma stem cells of classical subtype; assay: surviving fraction (nuclei count normalised to DMSO); higher = more cells surviving (less toxic)
E21 [2] = patient-derived glioblastoma stem cells of mesenchymal subtype; assay: as above
E28 [3] = patient-derived glioblastoma stem cells of classical subtype; assay: as above
E31 [4] = patient-derived glioblastoma stem cells of proneural subtype; assay: as above
E34 [5] = patient-derived glioblastoma stem cells of proneural subtype; assay: as above
E57 [6] = patient-derived glioblastoma stem cells of mesenchymal subtype; assay: as above
FT3469 [7] = normal neural stem cell line; assay: as above
E13 [8] = assay: phenotypic distance (Euclidean, principal components) from DMSO controls (arbitrary units); higher = stronger morphological change
E21 [9] = assay: as above
E28 [10] = assay: as above
E31 [11] = assay: as above
E34 [12] = assay: as above
E57 [13] = assay: as above
FT3469 [14] = assay: as above
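For phenotypic distance (Euclidean, principal components) from DMSO controls in this document: cell Painting imaging in 384-well plates, CellProfiler features reduced to at least 20 principal components, Euclidean distance versus same-plate DMSO vehicle wells (0.1% v/v), median over six images per well.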
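For surviving fraction (nuclei count normalised to DMSO) in this document: nuclei counted by high-content imaging of Hoechst-stained cells in laminin-coated 384-well plates, relative to 0.1% DMSO vehicle wells, with staurosporine as cell-death control.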

CCN(CC)Cc1ccc(C(=O)N(CCc2ccccc2OC)[C@@H]2CCNC2)cc1
Conditions	phenotypic distance	surviving fraction
E13 [1], 4.1 nM	–	1.08
E13 [1], 12.3 nM	–	0.868
E13 [1], 37 nM	–	0.939
E13 [1], 111.1 nM	–	0.916
E13 [1], 333.3 nM	–	0.929
E13 [1], 1000 nM	–	0.865
E13 [1], 3000 nM	–	0.251
E13 [8], 4.1 nM	0.886	–
E13 [8], 12.3 nM	0.664	–
E13 [8], 37 nM	0.732	–
E13 [8], 111.1 nM	0.746	–
E13 [8], 333.3 nM	0.975	–
E13 [8], 1000 nM	0.586	–
E13 [8], 3000 nM	6.33	–
E21 [2], 4.1 nM	–	0.952
E21 [2], 12.3 nM	–	0.993
E21 [2], 37 nM	–	1
E21 [2], 111.1 nM	–	0.952
E21 [2], 333.3 nM	–	0.919
E21 [2], 1000 nM	–	0.996
E21 [2], 3000 nM	–	0.663
E21 [9], 4.1 nM	0.354	–
E21 [9], 12.3 nM	0.793	–
E21 [9], 37 nM	0.496	–
E21 [9], 111.1 nM	0.901	–
E21 [9], 333.3 nM	4.65	–
E21 [9], 1000 nM	0.624	–
E21 [9], 3000 nM	4.48	–
E28 [3], 4.1 nM	–	0.904
E28 [3], 12.3 nM	–	1.11
E28 [3], 37 nM	–	1.04
E28 [3], 111.1 nM	–	1.12
E28 [3], 333.3 nM	–	1.03
E28 [3], 1000 nM	–	1.13
E28 [3], 3000 nM	–	0.601
E28 [10], 4.1 nM	0.583	–
E28 [10], 12.3 nM	0.51	–
E28 [10], 37 nM	0.826	–
E28 [10], 111.1 nM	0.771	–
E28 [10], 333.3 nM	0.874	–
E28 [10], 1000 nM	0.721	–
E28 [10], 3000 nM	4.84	–
E31 [4], 4.1 nM	–	1.06
E31 [4], 12.3 nM	–	1.02
E31 [4], 37 nM	–	1.01
E31 [4], 111.1 nM	–	1.19
E31 [4], 333.3 nM	–	0.914
E31 [4], 1000 nM	–	1.11
E31 [4], 3000 nM	–	0.62
E31 [11], 4.1 nM	0.43	–
E31 [11], 12.3 nM	0.532	–
E31 [11], 37 nM	0.762	–
E31 [11], 111.1 nM	0.583	–
E31 [11], 333.3 nM	0.607	–
E31 [11], 1000 nM	1.18	–
E31 [11], 3000 nM	5.34	–
E34 [5], 4.1 nM	–	0.806
E34 [5], 12.3 nM	–	1
E34 [5], 37 nM	–	0.941
E34 [5], 111.1 nM	–	1.12
E34 [5], 333.3 nM	–	1.05
E34 [5], 1000 nM	–	0.786
E34 [5], 3000 nM	–	0.859
E34 [12], 4.1 nM	0.768	–
E34 [12], 12.3 nM	0.429	–
E34 [12], 37 nM	0.97	–
E34 [12], 111.1 nM	1.09	–
E34 [12], 333.3 nM	1.04	–
E34 [12], 1000 nM	0.887	–
E34 [12], 3000 nM	1.55	–
E57 [6], 4.1 nM	–	1.16
E57 [6], 12.3 nM	–	1.03
E57 [6], 37 nM	–	1.08
E57 [6], 111.1 nM	–	1.03
E57 [6], 333.3 nM	–	1.06
E57 [6], 1000 nM	–	1.05
E57 [6], 3000 nM	–	0.433
E57 [13], 4.1 nM	0.619	–
E57 [13], 12.3 nM	0.993	–
E57 [13], 37 nM	0.517	–
E57 [13], 111.1 nM	0.737	–
E57 [13], 333.3 nM	0.532	–
E57 [13], 1000 nM	0.717	–
E57 [13], 3000 nM	7.97	–
FT3469 [7], 4.1 nM	–	0.944
FT3469 [7], 12.3 nM	–	1.04
FT3469 [7], 37 nM	–	0.955
FT3469 [7], 111.1 nM	–	1.11
FT3469 [7], 333.3 nM	–	1.21
FT3469 [7], 1000 nM	–	1.35
FT3469 [7], 3000 nM	–	1.18
FT3469 [14], 4.1 nM	0.348	–
FT3469 [14], 12.3 nM	0.837	–
FT3469 [14], 37 nM	0.511	–
FT3469 [14], 111.1 nM	0.773	–
FT3469 [14], 333.3 nM	0.915	–
FT3469 [14], 1000 nM	1.23	–
FT3469 [14], 3000 nM	2.24	–

Cc1ccc(C(=O)N(CCCN)[C@@H](c2oc3cc(Cl)ccc3c(=O)c2Cc2ccccc2)C(C)C)cc1
Conditions	phenotypic distance	surviving fraction
E13 [1], 4.1 nM	–	0.451 and 0.49
E13 [1], 12.3 nM	–	0.443 and 0.489
E13 [1], 37 nM	–	0.461 and 0.468
E13 [1], 111.1 nM	–	0.399 and 0.43
E13 [1], 333.3 nM	–	0.428 and 0.492
E13 [1], 1000 nM	–	0.445 and 0.399
E13 [8], 4.1 nM	3.01 and 2.45	–
E13 [8], 12.3 nM	3.35 and 2.7	–
E13 [8], 37 nM	2.78	–
E13 [8], 111.1 nM	3.42 and 3.07	–
E13 [8], 333.3 nM	2.78 and 2.91	–
E13 [8], 1000 nM	2.81 and 3.02	–
E13 [8], 3000 nM	2.53 and 5.91	–
E21 [2], 4.1 nM	–	0.198 and 0.164
E21 [2], 12.3 nM	–	0.186 and 0.161
E21 [2], 37 nM	–	0.159 and 0.158
E21 [2], 111.1 nM	–	0.192 and 0.177
E21 [2], 333.3 nM	–	0.178 and 0.162
E21 [2], 1000 nM	–	0.21 and 0.182
E21 [9], 4.1 nM	6.85 and 5.14	–
E21 [9], 12.3 nM	6.99 and 5.4	–
E21 [9], 37 nM	7.53 and 5.43	–
E21 [9], 111.1 nM	5.98 and 4.77	–
E21 [9], 333.3 nM	7.67 and 4.85	–
E21 [9], 1000 nM	6.93 and 5.54	–
E21 [9], 3000 nM	10.1 and 4.79	–
E28 [3], 4.1 nM	–	0.424 and 0.34
E28 [3], 12.3 nM	–	0.335 and 0.367
E28 [3], 37 nM	–	0.415 and 0.342
E28 [3], 111.1 nM	–	0.346 and 0.352
E28 [3], 333.3 nM	–	0.428 and 0.43
E28 [3], 1000 nM	–	0.328 and 0.336
E28 [10], 4.1 nM	3.6 and 2.9	–
E28 [10], 12.3 nM	3.5 and 3.14	–
E28 [10], 37 nM	3.73 and 3.19	–
E28 [10], 111.1 nM	3.42 and 3.15	–
E28 [10], 333.3 nM	3.17 and 2.59	–
E28 [10], 1000 nM	3.49 and 3.39	–
E31 [4], 4.1 nM	–	0.165
E31 [4], 12.3 nM	–	0.184
E31 [4], 37 nM	–	0.189
E31 [4], 111.1 nM	–	0.126
E31 [4], 333.3 nM	–	0.171
E31 [4], 1000 nM	–	0.174
E31 [4], 3000 nM	–	0.00446
E31 [11], 4.1 nM	4.81	–
E31 [11], 12.3 nM	3.13	–
E31 [11], 37 nM	3.36	–
E31 [11], 111.1 nM	3.73	–
E31 [11], 333.3 nM	4.39	–
E31 [11], 1000 nM	3.79	–
E31 [11], 3000 nM	11.9	–
E34 [5], 4.1 nM	–	0.598 and 0.534
E34 [5], 12.3 nM	–	0.575 and 0.607
E34 [5], 37 nM	–	0.606 and 0.576
E34 [5], 111.1 nM	–	0.429 and 0.564
E34 [5], 333.3 nM	–	0.575 and 0.595
E34 [5], 1000 nM	–	0.549 and 0.594
E34 [12], 4.1 nM	2.72 and 1.93	–
E34 [12], 12.3 nM	2.65 and 1.73	–
E34 [12], 37 nM	2.52 and 2.06	–
E34 [12], 111.1 nM	2.4 and 1.93	–
E34 [12], 333.3 nM	2.3 and 2.24	–
E34 [12], 1000 nM	2.35 and 1.99	–
E57 [6], 4.1 nM	–	0.0969 and 0.0961
E57 [6], 12.3 nM	–	0.0867 and 0.0693
E57 [6], 37 nM	–	0.0872 and 0.0935
E57 [6], 111.1 nM	–	0.101 and 0.085
E57 [6], 333.3 nM	–	0.0996 and 0.117
E57 [6], 1000 nM	–	0.119 and 0.0974
E57 [13], 4.1 nM	8.08 and 4.22	–
E57 [13], 12.3 nM	4.11 and 7.9	–
E57 [13], 37 nM	4.48 and 8.38	–
E57 [13], 111.1 nM	4.53 and 7.47	–
E57 [13], 333.3 nM	4.17 and 7.46	–
E57 [13], 1000 nM	4.05 and 7.38	–
E57 [13], 3000 nM	3.9 and 9.85	–
FT3469 [7], 4.1 nM	–	0.493 and 0.523
FT3469 [7], 12.3 nM	–	0.562 and 0.558
FT3469 [7], 37 nM	–	0.606 and 0.566
FT3469 [7], 111.1 nM	–	0.534 and 0.565
FT3469 [7], 333.3 nM	–	0.489 and 0.597
FT3469 [7], 1000 nM	–	0.556 and 0.549
FT3469 [14], 4.1 nM	2.95 and 2.85	–
FT3469 [14], 12.3 nM	2.63 and 2.23	–
FT3469 [14], 37 nM	2.78 and 2.25	–
FT3469 [14], 111.1 nM	3.02 and 2.28	–
FT3469 [14], 333.3 nM	3.08 and 2.17	–
FT3469 [14], 1000 nM	2.54 and 2.94	–

CC(C)(C)CC(C)(C)c1ccc(OCCOCC[N+](C)(C)Cc2ccccc2)cc1 [Benzethonium chloride]
phenotypic distance
Conditions	E13 [8]	E21 [9]	E28 [10]	E31 [11]	E34 [12]	E57 [13]	FT3469 [14]
4.11523 nM	0.537	0.773	0.718	0.922	0.73	0.566	0.694
12.34567901 nM	0.594	1.03	0.685	0.452	0.622	0.67	1.16
37.037 nM	0.837	0.654	0.4	0.793	0.82	0.808	0.855
111.1111111 nM	1.05	1	0.716	0.714	0.847	0.566	0.746
333.333 nM	0.65	0.939	0.667	1.42	0.91	0.524	0.802
1000 nM	1.22	1.3	0.382	1.81	1.21	2.04	2.79
3000 nM	4.92	3.86	4.89	12.9	2.98	4.76	2.88
